Measurements as given in US20100221709A1, “METHODS FOR IDENTIFYING AGENTS THAT MODULATE APOPTOSIS IN CELLS THAT OVER-EXPRESS A BCL-2 FAMILY MEMBER PROTEIN” (priority 2005, published 2010).
Where two headings read alike, the source gives them in different places.

Assays:
Cellular O2 consumption = format: cell-based; details: compared to antimycin A3
[1] = target: T1, recombinant Bcl-2 (Bcl-2ΔC22) (Homo sapiens, UniProt P10415); test: Antimycin A3 fluorescence binding and competitive displacement assay; details: antimycin A3 2 μM, competitor 2 μM, Bcl-2 3 μM
T1 construct: poly-His (N); made in house
T1 sequence (P10415 1-217 limits assumed, stated change not applied): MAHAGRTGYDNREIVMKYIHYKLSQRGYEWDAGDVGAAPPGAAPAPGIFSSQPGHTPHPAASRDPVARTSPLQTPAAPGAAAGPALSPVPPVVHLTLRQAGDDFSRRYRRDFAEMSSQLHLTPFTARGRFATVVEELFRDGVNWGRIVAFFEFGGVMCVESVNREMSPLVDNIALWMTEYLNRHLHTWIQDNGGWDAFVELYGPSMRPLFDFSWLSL
Description: In this assay, 0 to 5 μM antimycin A3 (Sigma Chemical Co., St. Louis, Mo.) was added to a physiological buffer (50 mM Tris-HCl pH 8.0, 0.2 M NaCl, 2 mM EDTA, 0.5% v/v glycerol) containing recombinant Bcl-2 or Bcl-xL protein under conditions that permitted antimycin A3 to bind to the BH3-binding domain of Bcl-2 or Bcl-xL, (22.5° C. on a Hitachi F-2500 fluorescence spectrofluorimeter equipped with a thermostatted cell holder). […] The excitation wavelength was 335 nm, and the maximum emission wavelength for antimycin A3 was 428 nm with a slit width of 10 nm. The samples were mixed in a quartz cuvette and checked for inner filter effect over the range of antimycin A3 for this study. […]
Recombinant human Bcl-2ΔC22 (a recombinant human […] lacking the C-terminal 22-amino acid residue membrane anchor sequence) and mouse Bcl-xLΔC20 (a murine Bcl-xL lacking the C terminal 20-amino acid residue membrane anchor sequence) fused with poly-His at the N-terminus were chromatographically purified to homogeneity. The concentrations of antimycin A3 and stock solutions of recombinant proteins were quantitated using an extinction coefficient of 7.24/mM/cm at 320 nm and by Bradford assay, respectively. […] For peptide displacement experiments, a solution of 2 μM antimycin A3 and 3 μM Bcl-2 was allowed to reach binding equilibrium at 4° C. prior to fluorescence measurements. […]

[2] = system: TABX2S cells (over-expressing Bcl-xL); test: in vitro
From the text: (§1) Briefly, a DNA fragment encoding the full-length mouse Bcl-xL cDNA was isolated from the plasmid pBS-BCL-xL (Tzung et al., Am. J. Path. 150:1985-1995 (1997), incorporated herein by reference in its entirety) by digestion with the restriction endonuclease EcoRI. This EcoRI fragment was cloned into the EcoRI site of the mammalian expression vector pSFFV (Fuhlbrigge et al., Proc. Nat. Acad. Sci. USA 85:5649-5653 (1988)) in both sense and antisense orientations, to form expression plasmids pSFFV-Bc/-xL-WT(sense) or pSFFV-Bc/-xL(antisense), respectively. The tumorigenic murine hepatocyte cell line TAMH was transfected by lipofection (Lipofectamine, Life Technologies, Rockville, Md., according to the manufacturer's recommendations) with the plasmids pSFFV-neo (the control), pSFFV-Bc/-xL-WT(sense) or pSFFV-Bc/-xL(antisense). Characterization of and culture conditions for the cell lines have been previously published (Wu et al., Proc. Nat. Acad. Sci. USA 91:674-78 (1994); Wu et al., Cancer Res. 54:5964-5973 (1994)). Transfectants were selected for the acquisition of neomycin resistance by growing cells in the presence of 750 μg/ml of G418. Bulk transfectants were cloned by limiting dilution and individual clones were screened by immunoblot analysis to determine the level of Bcl-xL, protein expression as described below.
(§2) Selected transfectants were then tested for whole cell sensitivity to several apoptotic agents. Transfected cells were cultured to reach approximately 80% confluency prior to plating an equal number of cells from selected clones on 12-well tissue culture plates. The transplanted cells were treated with the following apoptotic agents: 5 μM doxorubicin for 48 hours; 5 μM cisplatin for 48 hours; or with 200 U/ml tumor necrosis factor (TNF) plus 1 μg/ml actinomycin D for 18 hours. Cell viability was determined by trypan blue dye exclusion. The percentage of viable cells was calculated by the number of viable cells (treated with a particular apoptogenic agent) divided by the number in the control group (untreated).
(§3) TABX2S cells and TABX1A cells were also examined for the effects of various mitochondrial inhibitors. […] Azide was diluted from an aqueous stock solution.

[3] = system: mitochondria from cells over-expressing Bcl-xL (TABX2S cells); test: JC-1 staining of isolated mitochondrial fractions; format: biochemical, murine; details: 2 μg/ml
Description: Briefly, at 15 and 30 minutes, 5×10^5 cells were washed, trypsinized and resuspended in 1 ml of growth media. Each sample was stained with 10 μg/ml of JC-1 prepared in DMSO. After 10 minutes of incubation at 37° C., cells were transferred to ice and analysis was performed using a FACScan flow cytometer (Becton Dickinson). The excitation wavelength was 488 nm whereas measurement was performed at 520 and 585 nm for green and red fluorescence, respectively. Green and red fluorescence were measured on FL1 and FL2 channels, respectively. A minimum of 10,000 cells per sample were analyzed. Comparisons were made based on the results of at least three experiments.
Isolated mitochondria were loaded with JC-1 prior to treatment, and mitochondrial labeling was determined using FACS. […] Antimycin A-treated mitochondria with high levels of Bcl-xL had lower levels of JC-1 staining than parallel samples treated with CCCP. Uncoupled mitochondria still retain a significant Donnan potential because of trapped anionic species and it is likely that antimycin-induced PT and/or swelling of mitochondria led to a further reduction of this residual potential.
As observed for the parent compound, antimycin A3, mitochondria with normal levels of Bcl-xL expression were not affected by the 2-methoxy analog.

Bcl-xL(ΔC) WT = target: T2, Bcl-xL(ΔC) WT (Homo sapiens, UniProt Q07817); test: Pore assay, calcein release from large unilamellar vesicles; format: biochemical
T2 construct: inferred from pET22b(+) NdeI/XhoI cloning and nickel-NTA purification) (C); made in house; host or cells: Escherichia coli BL21(DE3) carrying pUB520
T2 sequence (Q07817 1-211 limits assumed, stated change not applied): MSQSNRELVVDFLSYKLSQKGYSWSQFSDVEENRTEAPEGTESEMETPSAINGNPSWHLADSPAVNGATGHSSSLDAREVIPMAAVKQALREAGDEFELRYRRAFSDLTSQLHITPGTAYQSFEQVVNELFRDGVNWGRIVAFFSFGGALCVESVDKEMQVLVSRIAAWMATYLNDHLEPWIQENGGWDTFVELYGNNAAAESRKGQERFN
Description: Large unilamellar vesicles composed of 60% dioleoylphophatidylcholine and 40% dioleoylphosphatidylglycerol were prepared by the extrusion method of Mayer et al., supra. Lipid stocks, in chloroform, were mixed and dried under a stream of nitrogen gas. The lipid was resuspended by vortexing for 30 min in a solution of 40 mM calcein (Molecular Probes), 25 mM KCl, and 10 mM KOAc, pH 5.0. After 10 freeze-thaw cycles, the lipid suspension was extruded through two 0.1 μm pore diameter Nucleopore filters. Non-entrapped dye was removed by passage over a Sephadex G10 column (Amersham Biosciences). Lipid concentration was measured using the ammonium ferrothiocyanate method (Stewart, Anal. Biochem. 104:10-14, 1980).
For pore assays, recombinant truncated Bcl-2 family protein or mutant protein (Bcl-xL(ΔC)) (500 nM) was added to large unilamellar vesicles (60 μM lipid concentration) in 100 mM KCl, 10 mM KOAc, pH 5.0, and fluorescence measured (490 nm excitation, 520 nm emission) with a Fluoromax-3 spectrophotometer. Peptides of the BH3 domain were incubated with the Bcl-xL(ΔC) 5 min prior to mixing with liposomes. AA1 was added to liposomes 1 min before adding the Bcl-xL(ΔC) protein. Samples for kinetic assays were analyzed in a thermostatted cuvette at 37° C. with constant stirring. Dose responses were measured in black quartz microplates (Hellma) at room temperature. Calcein release was expressed as percentage of maximum release with detergent lysis (0.1% Triton X-100).

[4] = Cell viability by trypan blue dye exclusion; details: mouse
From the text: as §1
as §2, with “(untreated). […]” for “(untreated).”

in vitro = details: mouse
From the text: as §1, §2, §3

[5] = system: myeloma cell lines (RPMI-8226, U266, NCI-H929); format: cell-based, human
Description: Cell survival was assayed by exclusion of propidium iodide (PI) (10 mg/ml) by unfixed cells. Annexin V-FITC (Pharmingen) or 3,3′-dihexyloxacarbocyanine iodide (DiOC6(3)) (Molecular Probes) staining was analyzed together with PI to discriminate early apoptotic cells. Apoptotic cells were also measured as sub-G1 events among ethanol-fixed cells stained with […] PI. All cell samples were analyzed using a benchtop FACSCalibur® (Becton Dickinson, San Jose, Calif.) flow cytometer. Flow data were analyzed using MultiCycle AV software (Phoenix Flow Systems). For intracellular pH measurements, cell pellets were washed once and resuspended in 2 ml of HEPES-buffered medium (no phenol red and no serum). Carboxy-SNARF®-1 acetoxymethyl (AM) ester (Molecular Probes, 1 mM stock in DMSO, stored at −20° C.), a long wavelength fluorescent pH indicator, was added to a final concentration of 10 μM, and the cells were incubated for 30 min at 37° C. Following incubation with SNARF®-1 AM, cells were sedimented and the pellets were held on ice. Immediately before analysis, pellets were resuspended in Earle's balanced salt solution (experimental buffer) or high-[K^+] buffer containing nigericin (calibration samples).

Structure (SMILES): CCCC[C@H]1C(=O)OC(C)C(NC(=O)c2cccc(NC=O)c2OC)C(=O)O[C@@H](C)C1OC(=O)CC(C)C (some centres unmarked) [2-methoxy antimycin A3, antimycin A3 methyl ether]
- effect on cellular O2 consumption (Cellular O2 consumption): negligible effect
- displacement of antimycin A3 from Bcl-2 (antimycin A3 fluorescence) [1]: decreased exponentially
- cytotoxicity for cells that over-express Bcl-xL versus control cells ([2]; TABX2S vs TAMH.neo and TABX1A): selective cytotoxicity
- mitochondrial depolarization (JC-1) [3]: strongly depolarized

Structure (SMILES): CC(C)C(C(=O)O)N1C(=O)/C(=C\c2ccc(Br)cc2)SC1=S (centres unmarked) [BH3I-1]
- effect on Bcl-xL pore-forming activity (FIG. 3A) (Bcl-xL(ΔC) WT): no effect

Structure (SMILES): COc1cccc2c1C(=O)c1c(O)c3c(c(O)c1C2=O)C[C@@](O)(C(=O)CO)C[C@@H]3O[C@H]1C[C@H](N)[C@H](O)[C@H](C)O1 [doxorubicin]
- viability at 48 h, 5 µM [4]: 50%
- viability at 48 h, 5 µM ([4]; TABX1A cells (TAMH hepatocyte line with Bcl-xL antisense)): 20%
- viability at 5 µM (in vitro): 88%

Structure (SMILES): CC[C@H]1/C=C/C=C/C[C@@H](C)[C@H](O)[C@@](C)(O)C(=O)[C@@H](C)[C@H](O)[C@@H](C)C(=O)[C@@H](C)[C@H](O)[C@@H](C)/C=C/C(=O)O[C@@H]2[C@H](C)[C@H](CC1)O[C@]1(CC[C@H](C)[C@H](C[C@@H](C)O)O1)[C@H]2C [oligomycin]
- difference in sensitivity of TABX2S and TABX1A cell lines [2]: no significant differences
- cell killing ([5]; 2-10 mg/ml): Only H929 cells were killed

Structure (SMILES): CCCCC1C(=O)OC(C)C(NC(=O)c2cccc(NC=O)c2OCC(=O)c2ccccc2)C(=O)OC(C)C1OC(=O)CC(C)C (centres unmarked) [phenacyl ether antimycin A3]
- displacement of antimycin A3 from Bcl-2 (antimycin A3 fluorescence) [1]: did not displace

Structure (SMILES): C=C(C)[C@H]1Cc2c(ccc3c2O[C@@H]2COc4cc(OC)c(OC)cc4[C@@H]2C3=O)O1 [rotenone]
- difference in sensitivity of TABX2S and TABX1A cell lines [2]: no significant differences
- cell killing ([5]; 0.5-2.5 mg/ml): none of the myeloma cell lines were killed

Structure (SMILES): CC(C)[C@@H]1NC(=O)[C@H](C)OC(=O)[C@@H](C(C)C)NC(=O)[C@@H](C(C)C)OC(=O)[C@H](C(C)C)NC(=O)[C@H](C)OC(=O)[C@@H](C(C)C)NC(=O)[C@@H](C(C)C)OC(=O)[C@H](C(C)C)NC(=O)[C@H](C)OC(=O)[C@@H](C(C)C)NC(=O)[C@@H](C(C)C)OC1=O [valinomycin]
- difference in sensitivity of TABX2S and TABX1A cell lines [2]: no significant differences
